Experimental data reported in patent US9353151B2, “HLA-binding peptide, and DNA fragment and recombinant vector coding for said HLA-binding peptide” (NEC Corporation, priority 2005, dated 2016).
No end group written: not given here.

Columns and labels:
[1] = system: HLA-A24 molecule (product of the HLA-A*2402 gene); test: Experiment of binding peptide to HLA-A24 molecule (C1R-A24 cells, flow cytometry); parameters: species or system human; settings: for Binding Experiment Data: -log Kd value (Kd in molar concentration), C1R-A24 cells
Experimental: The ability of a peptide to bind to an HLA-A24 molecule, which is a product of the HLA-A*2402 gene, was measured using C1R-A24 cells expressing the HLA-A24 molecule (cells prepared by Professor Masafumi Takiguchi, Kumamoto University being supplied with permission by Assistant Professor Masaki Yasukawa, Ehime University).
C1R-A24 cells were first exposed to acidic conditions at a pH of 3.3 for 30 seconds, thus dissociating and removing a light chain β2m, which is associated with HLA class I molecules in common, and an endogenous peptide originally bound to the HLA-A*2402 molecule. After neutralization, purified β2m was added to C1R-A24 cells, the obtained product was added to serial dilutions of a peptide, and incubated on ice for 4 hours. Staining was carried out using fluorescently labeled monoclonal antibody 17A12, which recognizes association (MHC-pep) of the three members, that is, HLA-A*2402 molecule, the peptide, and β2m, which had reassociated during the incubation.
Subsequently, the MHC-pep count per C1R-A24 cell (proportional to the strength of fluorescence of the above-mentioned fluorescent antibody) was quantitatively measured using an FACScan fluorescence-activated cell sorter (Becton Dickinson Biosciences). A binding dissociation constant Kd value between the HLA-A24 molecule and the peptide was calculated from the average strength of fluorescence per cell by a published method (Udaka et al., Immunogenetics, 51, 816-828, 2000).

[2] = target: HLA-A2 molecule (product of the HLA-A*0201 gene) (Homo sapiens, UniProt P04439, D140Y/D185E/D98H/E176V/E277Q/G131W/G231S/I119V/I121R/I166T/I218V/L300P/L318F/N151K/N90K/P208A/P217A/Q86G/Q94H/R138H/R169H/T345S); test: Experiment of binding peptide to HLA-A2 molecule (JY cells, flow cytometry); settings: -log Kd value (Kd in molar concentration)
Experimental: JY cells were first exposed to acidic conditions at a pH of 3.8 for 30 seconds, thus dissociating and removing a light chain β2m and an endogenous peptide, which were noncovalently associated with the HLA-A*0201 molecule. After neutralization, a reassociation experiment was carried out.
The above-mentioned JY cells and the purified β2m were added to stepped dilutions of peptide for which the binding ability would be measured, and incubation was carried out on ice for 4 hours. HLA-A*0201 molecules that had reassociated up to this point were stained using the associating type specific fluorescently-labeled monoclonal antibody BB7.2.
Subsequently, the amount of fluorescence per cell was measured using a flow cytometer and a dissociation constant Kd value in molar concentration was calculated by a published method (Udaka et al., Immunogenetics, 51, 816-828, 2000).

| Sequence | binding to a human HLA-A type molecule (in words) [1] | Binding Experiment Data ([1]; 9 amino acid peptides) | further results |
| --- | --- | --- | --- |
| AFLSVKKQF [compound 2] | experimentally confirmed to bind | 7.7283 |  |
| FLKDHRISTF [compound 44] | experimentally confirmed to bind |  | Binding Experiment Data ([1]; 10 amino acid peptides): 7.008 |
| FLKDHRISTF [compound 61] |  |  | Kd ([2]; 10 amino acid peptides): 2.95 µM |
| GAPTLPPAW [compound 6] | experimentally confirmed to bind | 6.1588 |  |
| SSGCAFLSV [compound 21] |  |  | Kd ([2]; 9 amino acid peptides): 5.07 µM |
| TLPPAWQPF [compound 1] | experimentally confirmed to bind | 8.2648 |  |
| TLPPAWQPF [compound 23] |  |  | Kd ([2]; 9 amino acid peptides): 4.37 µM |
